Measurements: patent publication US7732482B2, “Compound from Antrodia camphorata and the use thereof” (Simpson Biotech Co., Ltd., priority 2004, dated 2010)

How the values were obtained:
HSC-T6 cells = assay: Measurement of intracellular ROS (DCFH-DA, flow cytometry and confocal microscopy); type: cell-based, mice; conditions: HSC-T6, TGF-β 2 ng/ml; FIGS. 2-4
Experimental: For visualization and analysis of intracellular ROS, the oxidation-sensitive probe DCFH-DA was used, as previously described. To analyze the net intracellular generation of ROS by flow cytometry, cells were detached by trypsinization after incubation in the absence or presence of the different factors. The cellular fluorescence intensity was measured after 30 min incubation with […] DCFH-DA, by using the same flow cytometer described above. Propidium iodide (0.005%) was used to detect dead cells. For each analysis, 10,000 events were recorded. For confocal microscopy analysis, after incubation of cells in the absence or presence of the different factors, they were washed twice with PBS and the cellular fluorescence intensity was visualized after 30 min of incubation with […] DCFH-DA by using the same confocal microscopy described above. The analysis results were illustrated in FIGS. 2-4. […]
The influences of hepacin on mice-derived once-activated HSC-T6 line were studied. […] The luciferase activity was determined with or without 10, 5, 1 nM of hepacin in the absence or presence of 2 ng/ml of transforming growth factor TGF-β. The effects of hepacin on generation of intracellular reactive oxygen species (ROS) in HSC-T6 were also analyzed.

TGF-β = TGF-β mediated inflammation and fibrosis, cell model (HSC-T6) and animal model (mouse liver fibrosis); conditions: overall conclusion from the tests of Example 2 (FIGS. 5-10)
Experimental: The EMSA used the following oligonucleotides: consensus Sp1 (f), 5′-GTTGCGGGGCGGGGCCGAGTG-3′; consensus Sp1 (r), 3′-AACGCCCCGCCCCGGCTCACG-5′. 30 pmol of each of the forward and reverse oligonucleotides placed in a volume of 23 μl of 1× Klenow (DNA polymerase) buffer were heated at 94° C. for 2 min and annealed at room temperature for 30 min. The annealed double-stranded oligonucleotides were end-labeled by a fill-in reaction using DNA polymerase (Klenow)(Promega). One unit of the DNA polymerase (Klenow) and […] of (−32P)dCTP (PerkinElmer Life Sciences) were added into the annealed oligonucleotides and the mixture was incubated at 30° C. for 15 min. […] Samples were analyzed on a 4% polyacrylamide gel (acrylamide/bisacrylamide 29:1 in 0.5×Tris borate-EDTA buffer) at 10 V/cm for 2.5 h. The gel was dried and analyzed by autoradiography. […]
Liver samples (0.5 g) were lysed (Reporter lysis buffer, Promega, Madison, Wis., USA), the protein were boiled in Laemmli's sample buffer and samples were subjected to 10% SDSPAGE followed by western immunoblotting. […] Immunoreactive bands were detected using the enhanced chemiluminescence (ECL) reagent using SuperSignal West Pico Chemiluminescent Substrate (Pierce, Rockford, Ill., USA). The light emitted by the chemical reaction was detected by exposure to Hyperfilm ECL (Amersham Biosciences, Uppsala, Sweden). […]

Structure (SMILES): CC(C)=CCOc1ccc(C2=C(CC(C)C)C(=O)NC2=O)cc1 [Compound 2, 3-Isobutyl-4-[4-(3-methyl-2-butenyloxy)phenyl]-1H-pyrrole-2,5-dione]
- ROS scavenging (HSC-T6 cells): ROS Scavenger
- TGF-β mediated inflammation and fibrosis (TGF-β): Down Regulated TGF-β Mediated Inflammation and Fibrosis
